Measurements: patent publication US11136547B2, “Mesoderm induction method having high blood cell differentiation capacity” (Kyoto University, priority 2016, dated 2021)
Entries after “also recorded” stand apart in the source; their conditions may differ.

Key:
[1] = tested on: KhES3 and H1 cells; assay: Intermediate step intervention in C3H10T1/2 co-culture: occurrence of CD43+ blood cells on day 10; format: cell-based, human; settings: factor added in intermediate step days 4 to 7, in the presence of VEGF; compared with control/DMSO group; n=3
Method: (§1) Human ES cells that had been maintenance cultured in MEF were detached from the bottom of the dish in colony form as at the time of passage, and seeded on an inactivated C3H10T1/2 dish that had been prepared the previous day. The seeding rate was roughly 5×10^4 to 2×10^5 cells per 10-cm dish, although this is an estimate because the cells could not be counted. The medium was blood cell differentiation medium to which VEGF had been added to a final concentration of 20 ng/mL. Single cells were collected using 0.05% trypsin EDTA as necessary, the cells were counted, Y27632 was added to […], and the cells were differentiated as single cells.
When analyzing cells during differentiation, the culture supernatant was removed, the cells were washed twice with PBS, and 2 mL/dish of 0.25% trypsin EDTA was added and incubated for 5 minutes at 37° C. […] Blood cell differentiation medium was added to stop the reaction, and after centrifugation and removal of the supernatant, the cells were suspended in the necessary medium and analyzed.
(§2) Cells in a single-cell state were prepared as necessary, and fluorescent labeled antibodies were also included as necessary in amounts matching the cell numbers. […] These were then diluted with SM and centrifuged, the supernatant was removed, and the cells were suspended in the necessary amount of SMPI and analyzed. […]

[2] = tested on: KhES3 and H1 cells; assay: Initial step intervention in C3H10T1/2 co-culture: occurrence of CD56+APJ+ mesodermal cells on day 4 (flow cytometry); format: cell-based, human; settings: factor added on days 0 to 4; co-culture with C3H10T1/2; compared with control group; n=3
Method: as §1
When analyzing cells during differentiation, the culture supernatant was removed, the cells were washed twice with PBS, and 2 mL/dish of 0.25% trypsin EDTA was added and incubated for 5 minutes at 37° C. The cells were separated into single cells by pipetting with a Pipetman (p1000), and collected in a 15 mL centrifuge tube. Blood cell differentiation medium was added to stop the reaction, and after centrifugation and removal of the supernatant, the cells were suspended in the necessary medium and analyzed.
as §2
Taking cell surface markers as an evaluation standard, KhES3 and H1 cells were used to investigate what changes are seen in the occurrence of CD56+APJ+ cells due to interventions in the initial step. […] For the added concentrations of each factor, the maximum concentration was determined with reference to previous reports, and this was then diluted to investigate concentration (Inman, G. J. et al., Mol. Pharmacol. 62, 65-74 (2002); Xu, R.-H. et al., Nat Meth 2, 185-190 (2005); Huang, S.-M. A. et al., Nature 461, 614-620 (2009)).

Molecule: NC(=O)c1ccc(-c2nc(-c3ccc4c(c3)OCO4)c(-c3ccccn3)[nH]2)cc1 [SB431542]
- percentage occurrence of blood cells (CD43+) on day 10 [1]: increased; also recorded: significantly improved
- occurrence of CD56+APJ+ mesodermal cells on day 4 [2]: sharp drop in the ratio of CD56+APJ+ cells at the low concentration point; also recorded: significant decrease in the mesodermal cell population

Molecule: Oc1nc(-c2ccc(C(F)(F)F)cc2)nc2c1CSCC2 [XAV939]
- occurrence of CD56+APJ+ mesodermal cells on day 4 [2]: reduction in CD56+APJ+ cells was confirmed; also recorded: tended to decrease

Molecule: bFGF: basic fibroblast growth factor
- percentage occurrence of blood cells (CD43+) on day 10 [1]: tended to be better

B1: NOGGIN: physiological BMP antagonist (protein, UniProt Q13253 28-232, looked up)
Noggin: QHYLHIRPAPSDNLPLVDLIEHPDPIFDPKEKDLNETLLRSLLGGHYDPGFMATSPPEDRPGGGGGAAGGAEDLAELDQLLRQRPSGAMPSEIKGLEFSEGLAQGKKQRLSKKLRRKLQMWLWSQTFCPVLYAWNDLGSRFWPRYVKVGSCFSKRSCSVPEGMVCKPSKSVHLTVLRWRCQRRGGQRCGWIPIQYPIISECKCSC
- occurrence of CD56+APJ+ mesodermal cells on day 4 [2]: drop in CD56+APJ+ cells was confirmed, but the effect was limited; also recorded: decrease in the mesodermal cell population
